Here are results for 14 compounds from patent US9351955B2, “Compounds and pharmaceutical compositions thereof for the treatment of cystic fibrosis” (Galapagos NV, priority 2013, dated 2016).

Assay type in all cases: cell-based
Assay [1] concerns the target T1, CFTR ΔF508 mutant (Homo sapiens, UniProt P13569, DEL508-508).
T1 construct: expressed in transfected cells; host or cells: CFBE41o- (adenoviral transduction)
Description: YFP-halide influx assay for the CFTR-ΔF508 mutation (96 well, CFBE41o- cells). As to conditions: compounds of the invention, 96 well, forskolin 10.67 μM, read-out: EC50 measured by YFP-halide influx assay for the CFTR-ΔF508. The text has this:
6.1. YFP-Halide Influx Assay for the CFTR-ΔF508 Mutation
The YFP halide influx assay measures the functionality of the cystic fibrosis Transmembrane Conductance regulator (CFTR) channels in the cystic fibrosis bronchial epithelium cell line CFBE41o-. The assay is used to evaluate the capacity of compounds to increase the open probability of existing CFTR channels in the membrane. It makes use of the observation that the yellow fluorescent protein (YFP) variant YFP H148Q, I152L has its fluorescence substantially quenched by halide ions like Cl^− and I^−. (Galietta et al., 2001; Nagai et al., 2002)
For this purpose, CFBE410-cells are seeded in 96 well plates (6000 CFBE cells/well). One day after seeding, the CFBE cells are transduced with adenoviral vectors that direct the expression of the CFTR ΔF508 mutant and of the YFP reporter. Cells are incubated at 27° C., 5% CO2 for 24 hours so as to allow for the proper folding and migration to the membrane of the CFTR channel or treated with a CFTR modulator during 24 h at 37° C.
The […] quenching of fluorescence is recorded immediately after injection of I^− for 7 seconds. The capacity of a compound to increase the channel opening is directly correlated with the decrease in fluorescence, and is expressed as (1-(fluorescence after 7 seconds (F)/fluorescence before injection (F0))) and an EC50 can be derived from a (1−F/F0) vs compound concentration plot.

In the next assay the target is T2, CFTR G551D mutant (Homo sapiens, UniProt P13569, G551D).
T2 construct: expressed in transfected cells; host or cells: HEK293 (reverse transfection with plasmids)
Put plainly: YFP-halide influx assay for the CFTR-G551D mutation (HEK293 cells). The note with it: HEK293 cells expressing CFTR G551D and YFP reporter; forskolin 10.67 μM; read-out: EC50 measured by YFP-halide influx assay for the CFTR-G551D. In short, it runs like this:
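HEK293 cells reverse-transfected with CFTR G551D and halide-sensitive YFP, expressed 24 h at 37 °C. Iodide-induced fluorescence quench recorded for 7 s after I^− injection; response as 1−F/F0, EC50 from concentration plot.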

In assay [2] the target is T1, CFTR ΔF508 mutant. Put plainly: YFP-halide influx assay for the CFTR-ΔF508 mutation (384 well, CFBE41o- cells, FDSS/μCell). As to conditions: forskolin 10.67 μM, fluorescence after 36 seconds, read-out: EC50 measured by YFP-halide influx assay for the CFTR-ΔF508. The procedure, abridged: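 CFBE41o- cells were adenovirally transduced with ΔF508 CFTR and the YFP H148Q/I152L reporter. Cells were then held 24 h at 27 °C or treated 24 h at 37 °C with a CFTR modulator. Iodide-induced quench was recorded for 2 min, and EC50 was derived from 1−F/F0 at 36 s against compound concentration.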

T1 sequence (P13569 with tags, fused parts or gaps DEL508-508): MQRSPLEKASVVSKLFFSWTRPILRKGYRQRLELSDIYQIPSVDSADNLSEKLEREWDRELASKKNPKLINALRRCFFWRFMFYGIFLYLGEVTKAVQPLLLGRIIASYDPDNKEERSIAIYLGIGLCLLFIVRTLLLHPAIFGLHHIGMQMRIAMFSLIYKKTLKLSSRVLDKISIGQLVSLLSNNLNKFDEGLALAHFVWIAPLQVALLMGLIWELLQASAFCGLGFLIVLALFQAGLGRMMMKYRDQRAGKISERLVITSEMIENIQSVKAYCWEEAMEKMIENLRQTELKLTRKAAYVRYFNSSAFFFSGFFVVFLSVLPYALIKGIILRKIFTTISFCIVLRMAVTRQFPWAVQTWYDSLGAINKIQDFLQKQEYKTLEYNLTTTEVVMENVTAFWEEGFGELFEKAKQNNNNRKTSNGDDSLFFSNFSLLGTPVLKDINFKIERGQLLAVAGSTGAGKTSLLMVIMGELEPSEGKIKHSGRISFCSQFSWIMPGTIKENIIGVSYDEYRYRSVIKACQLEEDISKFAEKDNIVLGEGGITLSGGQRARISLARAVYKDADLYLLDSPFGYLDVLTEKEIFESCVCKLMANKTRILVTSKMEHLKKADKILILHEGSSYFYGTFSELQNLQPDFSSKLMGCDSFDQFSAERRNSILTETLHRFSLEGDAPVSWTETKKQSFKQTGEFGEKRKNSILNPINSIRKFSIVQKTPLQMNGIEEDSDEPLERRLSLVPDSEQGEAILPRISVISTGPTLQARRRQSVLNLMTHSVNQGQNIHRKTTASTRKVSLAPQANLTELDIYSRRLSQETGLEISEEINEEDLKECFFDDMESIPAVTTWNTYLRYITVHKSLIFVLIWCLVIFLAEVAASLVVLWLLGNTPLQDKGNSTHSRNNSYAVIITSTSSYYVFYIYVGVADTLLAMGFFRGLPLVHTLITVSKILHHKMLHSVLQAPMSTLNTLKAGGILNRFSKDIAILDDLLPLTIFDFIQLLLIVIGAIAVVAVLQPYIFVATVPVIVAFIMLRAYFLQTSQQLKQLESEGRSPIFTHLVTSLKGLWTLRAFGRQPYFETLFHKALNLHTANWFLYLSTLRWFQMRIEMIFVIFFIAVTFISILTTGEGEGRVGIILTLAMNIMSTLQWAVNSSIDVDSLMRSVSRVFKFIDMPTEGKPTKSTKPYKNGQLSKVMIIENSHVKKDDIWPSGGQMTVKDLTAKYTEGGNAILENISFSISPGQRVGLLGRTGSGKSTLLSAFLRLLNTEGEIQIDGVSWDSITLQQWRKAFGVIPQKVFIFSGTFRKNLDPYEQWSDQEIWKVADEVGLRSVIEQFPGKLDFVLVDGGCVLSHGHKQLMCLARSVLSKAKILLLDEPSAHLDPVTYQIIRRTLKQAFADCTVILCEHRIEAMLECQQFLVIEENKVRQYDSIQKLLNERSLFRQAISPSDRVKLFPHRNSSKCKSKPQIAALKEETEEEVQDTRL
T2 sequence (P13569 whole entry G551D): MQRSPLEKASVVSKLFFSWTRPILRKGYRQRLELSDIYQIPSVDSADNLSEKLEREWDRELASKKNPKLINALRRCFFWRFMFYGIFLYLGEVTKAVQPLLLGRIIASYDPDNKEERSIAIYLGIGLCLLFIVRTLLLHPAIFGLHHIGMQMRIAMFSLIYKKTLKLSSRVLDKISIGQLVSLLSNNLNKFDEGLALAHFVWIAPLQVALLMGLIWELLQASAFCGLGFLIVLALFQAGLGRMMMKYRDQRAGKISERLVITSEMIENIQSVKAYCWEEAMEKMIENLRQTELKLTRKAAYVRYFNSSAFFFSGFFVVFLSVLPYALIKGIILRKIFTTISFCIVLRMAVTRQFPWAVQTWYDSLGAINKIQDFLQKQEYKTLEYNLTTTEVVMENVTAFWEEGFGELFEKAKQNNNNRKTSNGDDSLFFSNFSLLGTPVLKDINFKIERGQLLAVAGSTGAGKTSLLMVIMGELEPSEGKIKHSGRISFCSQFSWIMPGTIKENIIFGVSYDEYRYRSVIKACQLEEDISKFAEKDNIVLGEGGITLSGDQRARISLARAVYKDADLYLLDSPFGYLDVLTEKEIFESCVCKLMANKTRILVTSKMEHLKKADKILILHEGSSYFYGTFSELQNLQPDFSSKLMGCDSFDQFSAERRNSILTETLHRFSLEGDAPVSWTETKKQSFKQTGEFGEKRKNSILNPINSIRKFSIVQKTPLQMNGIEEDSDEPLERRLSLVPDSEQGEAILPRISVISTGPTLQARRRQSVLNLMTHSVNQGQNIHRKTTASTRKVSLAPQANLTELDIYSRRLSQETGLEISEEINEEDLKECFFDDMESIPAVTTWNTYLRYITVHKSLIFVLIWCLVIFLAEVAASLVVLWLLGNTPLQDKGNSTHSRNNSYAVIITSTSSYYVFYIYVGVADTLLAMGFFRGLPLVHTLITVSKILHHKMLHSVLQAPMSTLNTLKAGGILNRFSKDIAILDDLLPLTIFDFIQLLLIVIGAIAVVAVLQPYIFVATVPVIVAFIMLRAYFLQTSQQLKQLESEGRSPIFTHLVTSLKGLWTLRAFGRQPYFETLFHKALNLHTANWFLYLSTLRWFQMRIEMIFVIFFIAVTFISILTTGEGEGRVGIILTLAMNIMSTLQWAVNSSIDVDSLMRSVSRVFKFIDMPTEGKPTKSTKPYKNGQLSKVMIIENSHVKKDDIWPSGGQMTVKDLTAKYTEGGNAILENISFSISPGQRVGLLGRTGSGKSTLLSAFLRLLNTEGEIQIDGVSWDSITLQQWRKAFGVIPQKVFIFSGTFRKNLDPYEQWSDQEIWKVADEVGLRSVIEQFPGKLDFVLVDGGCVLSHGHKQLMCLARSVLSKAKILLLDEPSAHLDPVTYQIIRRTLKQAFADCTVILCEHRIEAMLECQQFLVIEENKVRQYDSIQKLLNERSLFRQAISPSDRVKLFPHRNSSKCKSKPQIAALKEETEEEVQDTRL

Broadly, the EC50 is the concentration giving half of the maximal effect. As for `CC1(C)Cc2c(sc(NC(=O)c3ccc(F)cc3F)c2C(N)=O)C(C)(C)O1` [Compound 8, 2-(2,4-difluorobenzamido)-5,5,7,7-tetramethyl-5,7-dihydro-4H-thieno[2,3-c]pyran-3-carboxamide], the EC50 turned out to be 0.0228 µM at CFTR ΔF508 mutant [1], 0.308 µM at CFTR G551D mutant and 0.0273 µM at CFTR ΔF508 mutant [2].
For `Cc1cc(C(=O)Nc2sc3c(c2C(N)=O)CC(C)(C)OC3(C)C)[nH]n1` [Compound 11, N-(3-carbamoyl-5,5,7,7-tetramethyl-5,7-dihydro-4H-thieno[2,3-c]pyran-2-yl)-5-methyl-1H-pyrazole-3-carboxamide], the concentration for a half-maximal effect (EC50) amounted to 0.0272 µM at CFTR ΔF508 mutant [1], 0.59 µM at CFTR G551D mutant and 0.0126 µM on CFTR ΔF508 mutant [2].
Turning to `COC(=O)C1(C(=O)Nc2sc3c(c2C(N)=O)CC(C)(C)OC3(C)C)CC1` [Compound 12, methyl 1-(3-carbamoyl-5,5,7,7-tetramethyl-5,7-dihydro-4H-thieno[2,3-c]pyran-2-ylcarbamoyl)cyclopropanecarboxylate], the figures for the EC50 at CFTR ΔF508 mutant [1], at CFTR G551D mutant and on CFTR ΔF508 mutant [2] were 0.952 µM, 3.33 µM and 0.197 µM, respectively.
As for `CC1(C)Cc2c(sc(NC(=O)c3cc(C(C)(C)C)[nH]n3)c2C(N)=O)C(C)(C)O1` [Compound 16, 5-tert-butyl-N-(3-carbamoyl-5,5,7,7-tetramethyl-5,7-dihydro-4H-thieno[2,3-c]pyran-2-yl)-1H-pyrazole-3-carboxamide], the half-maximal effective concentration (EC50) on CFTR ΔF508 mutant [1] came out at 0.0253 µM; on CFTR G551D mutant, 5.25 µM; at CFTR ΔF508 mutant [2] it was 0.0908 µM.
For `CC1(C)Cc2c(sc(NC(=O)c3nnc[nH]3)c2C(N)=O)C(C)(C)O1` [Compound 18, N-(3-carbamoyl-5,5,7,7-tetramethyl-5,7-dihydro-4H-thieno[2,3-c]pyran-2-yl)-1H-1,2,4-triazole-3-carboxamide], the EC50 on CFTR ΔF508 mutant [1] came out at 0.829 µM; at CFTR G551D mutant, 3.33 µM; at CFTR ΔF508 mutant [2] it was 0.467 µM.
As to `CCc1n[nH]c(C(=O)Nc2sc3c(c2C(N)=O)CC(C)(C)OC3(C)C)c1C` [Compound 19, N-(3-carbamoyl-5,5,7,7-tetramethyl-5,7-dihydro-4H-thieno[2,3-c]pyran-2-yl)-3-ethyl-4-methyl-1H-pyrazole-5-carboxamide], the EC50 worked out at 0.0418 µM at CFTR ΔF508 mutant [1], 0.357 µM on CFTR G551D mutant and 0.00733 µM at CFTR ΔF508 mutant [2].
The corresponding values for `CC1(C)Cc2c(sc(NC(=O)c3cccnc3F)c2C(N)=O)C(C)(C)O1` [Compound 20, N-(3-carbamoyl-5,5,7,7-tetramethyl-5,7-dihydro-4H-thieno[2,3-c]pyran-2-yl)-2-fluoronicotinamide] are 0.305 µM, 3.29 µM and 0.422 µM.
The corresponding values for `CC1(C)Cc2c(sc(NC(=O)c3cccnc3O)c2C(N)=O)C(C)(C)O1` [Compound 23, N-(3-carbamoyl-5,5,7,7-tetramethyl-5,7-dihydro-4H-thieno[2,3-c]pyran-2-yl)-2-oxo-1,2-dihydropyridine-3-carboxamide] are 0.102 µM, 1.27 µM and 0.19 µM.
`CC1(C)Cc2c(sc(NC(=O)c3ccccc3-c3ncc[nH]3)c2C(N)=O)C(C)(C)O1` [Compound 27, 2-(2-(1H-imidazol-2-yl)benzamido)-5,5,7,7-tetramethyl-5,7-dihydro-4H-thieno[2,3-c]pyran-3-carboxamide]: the EC50 came to 0.44 µM on CFTR ΔF508 mutant [1], 1.67 µM at CFTR G551D mutant and 0.189 µM on CFTR ΔF508 mutant [2].
Consider `CC1(C)Cc2c(sc(NC(=O)c3ccccc3NS(C)(=O)=O)c2C(N)=O)C(C)(C)O1` [Compound 28, 5,5,7,7-tetramethyl-2-(2-(methylsulfonamido)benzamido)-5,7-dihydro-4H-thieno[2,3-c]pyran-3-carboxamide], for which the EC50 came to 0.378 µM at CFTR ΔF508 mutant [1], 2 µM at CFTR G551D mutant and 0.147 µM at CFTR ΔF508 mutant [2].
For `CC1(C)Cc2c(sc(NC(=O)C3CCNC3=O)c2C(N)=O)C(C)(C)O1` (stereo not drawn) [Compound 30, N-(3-carbamoyl-5,5,7,7-tetramethyl-5,7-dihydro-4H-thieno[2,3-c]pyran-2-yl)-2-oxopyrrolidine-3-carboxamide], the half-maximal effective concentration (EC50) was found to be 0.141 µM on CFTR ΔF508 mutant [1], 6.67 µM at CFTR G551D mutant and 0.101 µM at CFTR ΔF508 mutant [2].
In the same order, the values of `CC1(C)Cc2c(sc(NC(=O)c3n[nH]c4c3COCC4)c2C(N)=O)C(C)(C)O1` [Compound 32, N-(3-carbamoyl-5,5,7,7-tetramethyl-5,7-dihydro-4H-thieno[2,3-c]pyran-2-yl)-1,4,6,7-tetrahydropyrano[4,3-c]pyrazole-3-carboxamide] are 0.023 µM, 0.854 µM and 0.0396 µM.
In the same order, the values of `CCc1[nH]nc(C(=O)Nc2sc3c(c2C(N)=O)CC(C)(C)OC3(C)C)c1Cl` [Compound 36, N-(3-carbamoyl-5,5,7,7-tetramethyl-5,7-dihydro-4H-thieno[2,3-c]pyran-2-yl)-4-chloro-5-ethyl-1H-pyrazole-3-carboxamide] are 0.013 µM, 0.716 µM and 0.0124 µM.
Take `CC1(C)Cc2c(sc(NC(=O)c3[nH]nc4c3COC4)c2C(N)=O)C(C)(C)O1` [Compound 37, N-(3-carbamoyl-5,5,7,7-tetramethyl-5,7-dihydro-4H-thieno[2,3-c]pyran-2-yl)-4,6-dihydro-1H-furo[3,4-c]pyrazole-3-carboxamide]: the concentration giving a half-maximal response (EC50) on CFTR ΔF508 mutant [1] was 0.016 µM; at CFTR G551D mutant, 0.892 µM; at CFTR ΔF508 mutant [2] it was 0.0254 µM.
